In patent publication US8729269B2, “Substituted piperidino phenyloxazolidinones having antimicrobial activity with improved in vivo efficacy” (Wockhardt Limited, priority 2003, dated 2014):
Converted amounts (≈) assume the structure as drawn.

Key:
[1] = test system: Vancomycin resistant enterococci 303 (VRE 303); test: Minimum Inhibitory Concentration (MIC) determination, agar dilution; assay type: cell-based; conditions: Enterococcus, Mueller Hinton agar, 24 hrs at 35° C.
Description: (§1) Overnight grown cultures of Methicilin resistant Staphylococcus aureus 32 (MRSA 32), Methicilin resistant Staphylococcus epidermidis 118 (MRSE 118), Vancomycin resistant enterococci 303 (VRE 303) in Tryptic Soya broth were diluted in Mueller Hinton Broth to give optical density matching with MacFarland tube 0.5 standard. Cultures were further diluted 1:10 in Mueller Hinton broth. Using Denley's multipoint inoculator, 10^4 cells were deposited on Mueller Hinton agar (Difco) containing range of 2 fold dilutions of test compounds. These plates were incubated for 24 hrs at 35° C. and MIC results recorded. MIC is defined as minimum drug concentration that inhibits test organisms. For determining MIC of test compounds against Streptococcus pneumoniae 49619 (SPN 49619) and Streptococcus pyogenes 801 (SPY 801), Mueller Hinton agar containing 5% sheep blood was employed.

[2] = test system: Methicilin resistant Staphylococcus aureus 32 (MRSA 32); test: as above; assay type: cell-based; conditions: Mueller Hinton agar, 24 hrs at 35° C.
Description: as §1

[3] = test system: Methicilin resistant Staphylococcus epidermidis 118 (MRSE 118); test: as above; assay type: cell-based; conditions: Mueller Hinton agar, 24 hrs at 35° C.
Description: as §1

[4] = test system: methicillin resistant Staphylococcus aureus strain MRSA 32; test: Murine Assay Procedure (in vivo efficacy, MRSA 32 infection); conditions: swiss mice infected intraperitoneally with MRSA 32, oral gavage 1 h after infection, repeat dose 3 hrs later, percentage survival on Day 7
Description: Oxazolidinone new chemical entities (NCEs) were evaluated for their in vivo efficacy in a murine infection caused by multi-drug resistant, methicillin resistant Staphylococcus aureus strain, referred to as MRSA 32, a clinical isolate obtained from a hospitalized patient. The procedure used for the murine assay is as follows:
Four weeks old swiss mice of 18-22 gm body weight were infected with MRSA 32 strain suspended in 5% Hog gastric mucin. The infecting dose of bacteria was set at 1-2×10^8 CFU/animal. The infecting dose was administered in 0.5 ml volume injected into peritonial cavity of mice. The treatment with oxazolidinone NCEs was started one hour after infection by administering 100-200 μl of the suspensions of oxazolidinone compounds in 5% Tween 80 by oral gavage. A repeat dose was similarly administered 3 hrs later. Each oxazolidinone NCE was tested at 2-3 different dosages in the range of 2.5 mg/kg to 20 mg/kg. In each dose group 6 mice were included. As an infection control group 12 mice were infected with MRSA 32 strain without giving any treatment. For compounds affording protection of MRSA infected mice, ED50 dosages were calculated on the basis of percentage survival on Day 7 after infection.

[5] = test system: Streptococcus pneumoniae 49619 (SPN 49619); test: Minimum Inhibitory Concentration (MIC) determination, agar with 5% sheep blood; assay type: cell-based; conditions: Mueller Hinton agar containing 5% sheep blood
Description: as §1

[6] = test system: Streptococcus pyogenes 801 (SPY 801); test: as above; assay type: cell-based; conditions: Mueller Hinton agar containing 5% sheep blood
Description: as §1

SMILES | MIC [1] [µg/mL] | MIC [2] [µg/mL] | MIC [3] [µg/mL] | ED50 [4] [mg/kg] | MIC [5] [µg/mL] | MIC [6] [µg/mL]
CC(=O)NC[C@H]1CN(c2ccc(N3CCC4(CC3)CC4C#N)cc2)C(=O)O1 (mixture of isomers) [Example 96, (1RS,5S)—N-{3-[4-(1-cyano-6-aza-spiro[2.5]oct-6-yl)-phenyl]-2-oxo-oxazolidin-5-ylmethyl}-acetamide] | 8 | 4 | 2 | 5 | 4 | 4
CC(=O)NC[C@H]1CN(c2ccc(N3CCC4(CC3)CC4C#N)c(F)c2)C(=O)O1 (mixture of isomers) [Example 97, (1RS,5S)—N-{3-[4-(1-cyano-6-aza-spiro[2.5]oct-6-yl)-3-fluorophenyl]-2-oxo-oxazolidin-5-ylmethyl}-acetamide] | 2 | 4 | 1 | 5 | 2 | 2
CS(=O)(=O)NCC1CN(c2ccc(N3CCC(O)(CN=[N+]=[N-])CC3)c(F)c2)C(=O)O1 (stereo in doubt) [Example 40, (S)—N-{3-[4-(4-Azidomethyl-4-hydroxypiperidin-1-yl)-3-fluorophenyl]-2-oxo-oxazolidin-5-ylmethyl}-methanesulfonamide] | > 16 | 8 (≈ 18.1 µM) | 8 (≈ 18.1 µM) | 10 | > 8 | > 8
CC(=O)NC[C@H]1CN(c2ccc(N3CCC(C)(F)CC3)c(F)c2)C(=O)O1 [Example 1, (S)—N-{3-[4-(4-Fluoro-4-methylpiperidin-1-yl)-3-fluorophenyl]-2-oxo-oxazolidin-5-ylmethyl}-acetamide] | 4 (≈ 10.9 µM) | 4 (≈ 10.9 µM) | 2 (≈ 5.44 µM) | 10 | 2 (≈ 5.44 µM) | 2 (≈ 5.44 µM)
CC(=O)NC[C@H]1CN(c2ccc(N3CCC(F)(CC#N)CC3)c(F)c2)C(=O)O1 [Example 2, (S)—N-{3-[4-(4-Fluoro-4-cyanomethylpiperidin-1-yl)-3-fluorophenyl]-2-oxo-oxazolidin-5-ylmethyl}-acetamide] | 1 (≈ 2.55 µM) | 1 (≈ 2.55 µM) | 0.5 (≈ 1.27 µM) | 2.5 | 0.5 (≈ 1.27 µM) | 1 (≈ 2.55 µM)
CC(=O)NC[C@H]1CN(c2ccc(N3CCC(F)(CN=[N+]=[N-])CC3)c(F)c2)C(=O)O1 [Example 4, (S)—N-{3-[4-(4-Fluoro-4-azidomethylpiperidin-1-yl)-3-fluorophenyl]-2-oxo-oxazolidin-5-ylmethyl}-acetamide] | 2 (≈ 4.9 µM) | 2 (≈ 4.9 µM) | 1 (≈ 2.45 µM) | 10 | 2 (≈ 4.9 µM) | 2 (≈ 4.9 µM)
CC(=O)NC[C@H]1CN(c2ccc(N3CCC(F)(CNC(C)=O)CC3)c(F)c2)C(=O)O1 [Example 6, (S)—N-{3-[4-(4-Fluoro-4-(N-acetylamino)-methylpiperidin-1-yl)-3-fluorophenyl]-2-oxo-oxazolidin-5-ylmethyl}-acetamide] | 8 (≈ 18.8 µM) | 8 (≈ 18.8 µM) | 2 (≈ 4.71 µM) | 10 | 2 (≈ 4.71 µM) | 2 (≈ 4.71 µM)
CC(=O)NC[C@H]1CN(c2ccc(N3CCC(F)(CNS(C)(=O)=O)CC3)c(F)c2)C(=O)O1 [Example 7, (S)—N-{3-[4-(4-Fluoro-4-methanesulfonamidomethylpiperidin-1-yl)-3-fluorophenyl]-2-oxo-oxazolidin-5-ylmethyl}-acetamide] | 2 (≈ 4.34 µM) | 1 (≈ 2.17 µM) | 0.5 (≈ 1.09 µM) | 5 | 1 (≈ 2.17 µM) | 1 (≈ 2.17 µM)
CC(=O)NC[C@H]1CN(c2ccc(N3CCC(F)(CO)CC3)c(F)c2)C(=O)O1 [Example 9, (S)—N-{3-[4-(4-Fluoro-4-hydroxymethylpiperidin-1-yl)-3-fluorophenyl]-2-oxo-oxazolidin-5-ylmethyl}-acetamide] | 4 (≈ 10.4 µM) | 2 (≈ 5.22 µM) | 0.5 (≈ 1.3 µM) | 5 | 2 (≈ 5.22 µM) | 2 (≈ 5.22 µM)
COCC1(F)CCN(c2ccc(N3C[C@H](CNC(C)=O)OC3=O)cc2F)CC1 [Example 10, (S)—N-{3-[4-(4-Fluoro-4-methoxymethylpiperidin-1-yl)-3-fluorophenyl]-2-oxo-oxazolidin-5-ylmethyl}-acetamide] | 1 (≈ 2.52 µM) | 2 (≈ 5.03 µM) | 1 (≈ 2.52 µM) | 5 | 2 (≈ 5.03 µM) | 2 (≈ 5.03 µM)
CCOCC1(F)CCN(c2ccc(N3C[C@H](CNC(C)=O)OC3=O)cc2F)CC1 [Example 11, (S)—N-{3-[4-(4-Fluoro-4-ethoxymethylpiperidin-1-yl)-3-fluorophenyl]-2-oxo-oxazolidin-5-ylmethyl}-acetamide] | 4 (≈ 9.72 µM) | 1 (≈ 2.43 µM) | 0.5 (≈ 1.22 µM) | 10 | 2 (≈ 4.86 µM) | 4 (≈ 9.72 µM)
CC(=O)NC[C@H]1CN(c2ccc(N3CCC(F)(COS(C)(=O)=O)CC3)c(F)c2)C(=O)O1 [Example 12, (S)—N-{3-[4-(4-Fluoro-4-methanesulfonyloxymethylpiperidin-1-yl)-3-fluorophenyl]-2-oxo-oxazolidin-5-ylmethyl}-acetamide] | 2 (≈ 4.33 µM) | 1 (≈ 2.17 µM) | 0.5 (≈ 1.08 µM) | 2.5 | 0.25 (≈ 0.542 µM) | 0.25 (≈ 0.542 µM)
CC(=O)NC[C@H]1CN(c2ccc(N3CCC(F)(CI)CC3)c(F)c2)C(=O)O1 [Example 15, (S)—N-{3-[4-(4-Fluoro-4-iodomethylpiperidin-1-yl)-3-fluorophenyl]-2-oxo-oxazolidin-5-ylmethyl}-acetamide] | 2 (≈ 4.05 µM) | 1 (≈ 2.03 µM) | 1 (≈ 2.03 µM) | 10 | 1 (≈ 2.03 µM) | 1 (≈ 2.03 µM)
CC(=O)NC[C@H]1CN(c2ccc(N3CCC(F)(F)CC3)c(F)c2)C(=O)O1 [Example 16, (S)—N-{3-[4-(4,4-Difluoropiperidin-1-yl)-3-fluorophenyl]-2-oxo-oxazolidin-5-ylmethyl}-acetamide] | 2 (≈ 5.39 µM) | 2 (≈ 5.39 µM) | 1 (≈ 2.69 µM) | 5 | 2 (≈ 5.39 µM) | 2 (≈ 5.39 µM)
CC(=O)NC[C@H]1CN(c2ccc(N3CCC(C)(O)CC3)c(F)c2)C(=O)O1 [Example 17, (S)—N-{3-[4-(4-Methyl-4-hydroxypiperidin-1-yl)-3-fluorophenyl]-2-oxo-oxazolidin-5-ylmethyl}-acetamide] | > 32 | 8 (≈ 21.9 µM) | > 32 | 10 | > 16 | > 16
CC(=O)NC[C@H]1CN(c2ccc(N3CCC(O)(C#N)CC3)c(F)c2)C(=O)O1 [Example 19, (S)—N-{3-[4-(4-Cyano-4-hydroxypiperidin-1-yl)-3-fluorophenyl]-2-oxo-oxazolidin-5-ylmethyl}-acetamide] | 4 (≈ 10.6 µM) | 4 (≈ 10.6 µM) | 0.5 (≈ 1.33 µM) | 5 | 4 (≈ 10.6 µM) | 8 (≈ 21.3 µM)
CC(=O)NC[C@H]1CN(c2ccc(N3CCC(O)(CC#N)CC3)c(F)c2)C(=O)O1 [Example 21, (S)—N-{3-[4-(4-Cyanomethyl-4-hydroxypiperidin-1-yl)-3-fluorophenyl]-2-oxo-oxazolidin-5-ylmethyl}-acetamide] | 4 (≈ 10.2 µM) | 4 (≈ 10.2 µM) | 1 (≈ 2.56 µM) | 2.5 | 1 (≈ 2.56 µM) | 1 (≈ 2.56 µM)
CC(=O)NC[C@H]1CN(c2ccc(N3CCC(O)(CN=[N+]=[N-])CC3)c(F)c2)C(=O)O1 [Example 25, (S)—N-{3-[4-(4-Azidomethyl-4-hydroxypiperidin-1-yl)-3-fluorophenyl]-2-oxo-oxazolidin-5-ylmethyl}-acetamide] | 2 (≈ 4.92 µM) | 4 (≈ 9.84 µM) | 1 (≈ 2.46 µM) | 5 | 2 (≈ 4.92 µM) | 2 (≈ 4.92 µM)
CC(=O)NC[C@H]1CN(c2ccc(N3CCC4(CC3)C[S+]([O-])CCO4)c(F)c2)C(=O)O1 (stereo partly drawn) [Example 162, (S)—N-{3-[4-(1-oxa-4-sulfinyl-9-aza-spiro[5.5]undec-9-yl)-3-fluorophenyl]-2-oxo-oxazolidin-5-ylmethyl}-acetamide] | – | 8 (≈ 18.2 µM) | – | 10 | 4 (≈ 9.1 µM) | 4 (≈ 9.1 µM)
COCC1(O)CCN(c2ccc(N3C[C@H](CNC(C)=O)OC3=O)cc2)CC1 [Example 177, (S)—N-{3-[4-(4-methoxymethyl-4-hydroxy-piperidin-1-yl)-phenyl]-2-oxo-oxazolidin-5-ylmethyl}-acetamide] | 8 (≈ 21.2 µM) | 8 (≈ 21.2 µM) | 4 (≈ 10.6 µM) | 10 | – | –
